ChEMBL document CHEMBL5728798, “Macrocycles as factor XIA inhibitors” (2021)

Target: Coagulation factor XI (Homo sapiens, UniProt P03951)
Assay: In Vitro Assays: Factor XIa determinations were made in 50 mM HEPES buffer at pH 7.4 containing 145 mM NaCl, 5 mM KCl, and 0.1% PEG 8000 (polyethylene glycol; JT Baker or Fisher Scientific). Determinations were made using purified human Factor XIa at a final concentration of 25-200 pM (Haematologic Technologies) and the synthetic substrate S-2366 (pyroGlu-Pro-Arg-pNA; CHROMOGENIX® or AnaSpec) at a concentration of 0.0002-0.001 M.

Coagulation factor XI, sequence (P03951 19-387 limits assumed): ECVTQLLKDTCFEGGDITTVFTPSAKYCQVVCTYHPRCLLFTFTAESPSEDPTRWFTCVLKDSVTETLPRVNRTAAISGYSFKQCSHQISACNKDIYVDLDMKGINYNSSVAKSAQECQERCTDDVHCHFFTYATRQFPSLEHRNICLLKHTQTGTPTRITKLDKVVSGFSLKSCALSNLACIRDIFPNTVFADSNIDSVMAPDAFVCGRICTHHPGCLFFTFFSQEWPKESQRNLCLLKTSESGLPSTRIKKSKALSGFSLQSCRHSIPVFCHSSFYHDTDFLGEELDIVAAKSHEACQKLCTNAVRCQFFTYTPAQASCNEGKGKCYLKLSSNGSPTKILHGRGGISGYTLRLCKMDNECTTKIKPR
Coagulation factor XI, sequence (P03951 388-625 limits assumed): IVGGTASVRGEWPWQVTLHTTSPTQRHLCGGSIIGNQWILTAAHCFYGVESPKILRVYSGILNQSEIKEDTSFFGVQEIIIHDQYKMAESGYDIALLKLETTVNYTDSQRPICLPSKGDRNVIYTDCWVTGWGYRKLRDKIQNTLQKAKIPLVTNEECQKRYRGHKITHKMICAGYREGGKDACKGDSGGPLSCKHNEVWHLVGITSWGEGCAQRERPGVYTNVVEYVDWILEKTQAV

Ki: 289 nM
Compound: COC(=O)Nc1ccc2c(c1)N[C@@H](C(F)F)CCCC[C@H](NC(=O)/C=C/c1cc(Cl)ccc1-n1cnnn1)c1nc-2c[nH]1
